US8012751B2, “Differentiation of pluripotent embryonic stem cells” (Wisconsin Alumni Research Foundation, priority 2005, dated 2011)

Assays:
human ES cells [1] = test: Oct4 staining (flow cytometry / immunocytochemistry) of differentiation; format: cell-based
Method: (§1) H1 human ES cells (WiCell) were cultured as previously described and incorporated by reference herein (Amit et al., 2000). Human ES cells were cultured under feeder-free conditions on culture flasks that were pre-coated with matrigel™ (Becton Dickinson Labware, Bedford, MA), using medium conditioned overnight on dense murine embryonic fibroblasts (MEFs) (Xu et al., 2001a). D3 mouse ES cells (ATCC) were cultured under feeder-free conditions in mouse ES cell medium, consisting of 85% Knock-Out DMEM supplemented with 15% Gibco KNOCKOUT Serum Replacement, 2.5 mM glutamine, 0.1 mM beta-mercaptoethanol (Sigma), and 1000 U/l LIF (Esgro) on gelatin-coated plates. Murine and human fibroblasts and the 293T cell lines were cultivated in DMEM +10% Fetal bovine serum (FBS) and 1% non essential amino acids.
Cells were treated with trypsin/EDTA and washed with PBS (both reagents are available through Invitrogen Corp.) Dead cells were excluded from analysis by forward- and side-scatter gating. Eighteen samples were analyzed using a FACScan (Becton Dickinson) flow cytometer and Cellquest software (Becton Dickinson). A minimum of 50,000 events were acquired for each sample. For Oct4 expression studies cells were stained for Oct4 using monoclonal Oct4 antibody (1 μl/10^6 cells, available through Santa Cruz). Cells were analyzed by flow cytometry analysis in a fluorescence activated cell sorter. […]

[2] = system: PARP-1 activity in human ES cells; test: in vitro PARP activity assay; format: cell-based; settings: human ES cells treated with DEVD.fmk; p<0.01
Method: (§2) Apoptotic cells were detected using the Annexin-V binding kit (ApoAlert, Clontech) or the TUNEL assay kit (DeadEnd, Promega). PARP activity was determined according to a protocol published by Bakondi and others (Bakondi et al., 2002). In order to detect activated caspase-3 or cleaved p85 PARP-1, cells were fixed in CytoFix (BD), permeablized in CytoPerm, and incubated at 1 μg/ml of anti-active caspase-3 antibody (Cellsignalling) or with 1 μg/ml anti-p85 PARP-1 (Promega) overnight at 4° C. The cells were then washed with CytoPern and incubated with secondary anti-rabbit FITC conjugated antibodies (1:200 dilution) for 60 minutes at room temperature. Mouse embryos were fixed in methanol:DMSO (4:1) (Sigma) overnight at 4° C., re-hydrated in 50% methanol, and then incubated with the primary antibodies (anti-p85 PARP-1 or anti-active caspase-3) in PBS with 2% nonfat instant skim milk and 0.5% Triton-X 100 with gentle shaking overnight at 4° C. Embryos were washed 6 times for 5 minutes at room temperature in PBS with 2% nonfat instant skim milk and 0.5% Triton-X 100 with gentle shaking and incubated in the same way with the secondary fluorescent antibody. Cells and embryos were visualized using a confocal laserscan microscope (Leica) or flow cytometry.
Human ES cells were plated out as small colonies on matrigel, mouse ES cells on gelatin. […]

mouse embryos = test: embryo culture outgrowth experiments; settings: treated embryos n=34
Source text: (§3) Three to nine-week-old female B6C3F1 mice (Charles Rivers) were superovulated with a single 10 IU intraperitoneal injection of Pregnant Mare's Serum Gonadotrophin (Gestyl, Diosynth B.V.—OSS). Forty-eight hours later, ovulation was triggered with a single 10 IU intraperitoneal injection of human Chorionic Gonadotrophin (hCG, Novarel/Ferring) and the female mice were mated with male BDF1 mice (Charles Rivers) of proven fertility. Two-cell stage embryos were flushed from the oviducts of the female mice 38 to 40 hours after the hCG injection using modified-Human Tubal Fluid medium (m-HTF, Irvine Scientific) supplemented with 0.5 mg/mL polyvinyl alcohol (PVA, Sigma). The resulting embryos were washed and cultured in the same medium. Groups of 10-15 embryos were cultured at 37° C. with 5% CO2/95% air in 50 μL drops of m-HTF medium covered with mineral oil (Ovoil, Vitrolife). In the outgrowth experiments, the zona pellucida was digested with pronase and embryos were plated out on gelatin in ES cell derivation medium with 1000 U/mL LIF.
(§4) Human ES cells were plated out as small colonies on matrigel, mouse ES cells on gelatin. DEVD.fmk was added twice a day and half of the ES cell medium was changed daily. As a control, the same volume of DEVD.fmk solvent (DMSO) was added and no significant effect on the number of undifferentiated cells was observed. […]

human ES cells [3] = test: cell proliferation assay (MTS test); format: cell-based
Method: Human ES cells were grown for the indicated time in 96-wells on Matrigel and a MTS test (CellTiter 96, Promega) was performed according to manufacturers′ instructions.
Human ES cells were plated out as small colonies on matrigel, mouse ES cells on gelatin. DEVD.fmk was added twice a day and half of the ES cell medium was changed daily. As a control, the same volume of DEVD.fmk solvent (DMSO) was added and no significant effect on the number of undifferentiated cells was observed. Recombinant TAT-caspase-3rev was added 4 hours after application of caspase blocker and equal volumes of TAT protein served as controls. Mouse embryos were treated once in the 50 μl microdrop with the given concentration of DEVD.fmk or post-incubation 4 hours later with recombinant TAT-caspase-3rev.

[4] = system: p85 fragment of PARP-1 in human ES cells; test: Western immunoblotting for cleaved p85 PARP-1 fragment; format: cell-based; settings: human ES cells treated with DEVD.fmk
Method: Cell lysates were collected from H1 Human ES cells grown on mouse embryonic fibroblasts, D3 Mouse ES cells, Human Foreskin Fibroblasts (HF), 19 MEFs, and apoptotic MEFs induced with 25 μl/ml of 3% H2O2. Cytosolic and mitochondrial lysates were isolated using the ApoAlert Cell Fractionation Kit (Clontech, Palo Alto, Calif.) and whole-cell lysates were isolated using M-PER Mammalian Protein Extraction Reagent (Pierce, Rockford, Ill.) with 1:1000 dilution of Protease Inhibitor Cocktail (Sigma) and Pefablock SC (final concentration 0.2 μg/ml)(Sigma). Lysates were run on SDS-PAGE gels, transferred to Trans-Blot Transfer Medium (Bio-Rad, Hercules, Calif.) and peroxidase-conjugated secondary antibodies were detected using Supersignal West Pico Chemiluminscent Substrate (Pierce). Cytochrome C was detected with 1:100 dilution of Cytochrome C Antibody (Clontech) and 1:2000 Goat Anti-Rabbit IgG (H+L) (Caltag Laboratories, Burlingame, Calif). COX4 was detected with dilutions of 1:1000 COX4 Antibody (Clontech) and 1:1000 Anti-mouse IgG (g)-Peroxidase (Roche, Basel, Switzerland). PARP was detected with dilutions of 1:400 anti-p85 PARP (rabbit polyclonal IgG) (Promega) and 1:5000 goat Anti-Rabbit IgG (H+L) (Caltag Laboratories).
Human ES cells were plated out as small colonies on matrigel, mouse ES cells on gelatin. DEVD.fmk was added twice a day and half of the ES cell medium was changed daily. […]

[5] = system: caspase-3-like activity in ES cells; test: in vitro caspase-3 cell lysate assay; format: biochemical, human and mouse; settings: treatment with DEVD.fmk
Source text: Activation of caspase-3 is widely considered a marker of the late stages of programmed cell death. In vivo, most of the caspase-3-like enzymatic activity is attributed to caspase-3 and -7. Applicants have therefore assayed caspase-3-like activity in undifferentiated human and mouse ES cell lines using an in vitro cell lysate assay (FIG. 1B, left). […] To further characterize the elevation of caspase-3-like activity in individual ES cells, applicants performed flow cytometry using an antibody specifically recognizing the activated form of caspase-3 (FIG. 1B, right). […] In ES cells, staining for activated caspase-3 was concentrated in the nucleus, with reduced staining in the cytosol (FIG. 1C). In intact embryos, moderate immunostaining of activated caspase-3 was present in all cells of the compacted morula, and in the ICM, but was largely absent in the trophectoderm (FIG. 1D).

human ES cells [6] = test: morphology and time of differentiation of treated ES cells; format: cell-based
Method: as §1
Human ES cells were plated out as small colonies on matrigel, mouse ES cells on gelatin. DEVD.fmk was added twice a day and half of the ES cell medium was changed daily. As a control, the same volume of DEVD.fmk solvent (DMSO) was added and no significant effect on the number of undifferentiated cells was observed. Recombinant TAT-caspase-3rev was added 4 hours after application of caspase blocker and equal volumes of TAT protein served as controls. […]

human ES cells [7] = test: Annexin-V EGFP binding (programmed cell death); format: cell-based; settings: p=0.0011
Method: as §2, with “Embryos were washed 6 times for 5 minutes at room temperature in PBS with 2% nonfat instant skim milk and 0.5% Triton-X 100 with gentle shaking and incubated in the same way with the secondary fluorescent antibody. Cells and embryos were visualized using a confocal laserscan microscope (Leica) or flow cytometry.” left out
Cells were treated with trypsin/EDTA and washed with PBS (both reagents are available through Invitrogen Corp.) Dead cells were excluded from analysis by forward- and side-scatter gating. Eighteen samples were analyzed using a FACScan (Becton Dickinson) flow cytometer and Cellquest software (Becton Dickinson). […] Cells were analyzed by flow cytometry analysis in a fluorescence activated cell sorter. […]

mouse morulas = test: development of pre-implantation embryos to expanded blastocysts
Source text: as §3, §4

human ES cells [8] = test: microarray gene expression analysis of DEVD.fmk treated cells; format: cell-based
Source text: Since ES cells differentiate relatively uniformly from their undifferentiated state into the spindle-shaped cells, we performed a microarray analysis of the differentiated human cells treated with DEVD.fmk. […] In both zebrafish and Xenopus, dickkopf genes have been associated with the development of mesoderm and endoderm. The identity of the differentiated cell type is most likely a common precursor of mesoderm and endoderm (“mesendoderm”).

[9] = versus undifferentiated ES cells

Substance: N-benzyloxycarbonyl-Asp-Glu-Val-Asp fluoromethylketone (DEVD; HELM PEPTIDE1{[O=C(OCc1ccccc1)[*:2]].D.E.V.D.[FC[*:1]]}$$$$V2.0; SMILES CC(C)[C@H](NC(=O)[C@H](CCC(=O)O)NC(=O)[C@H](CC(=O)O)NC(=O)OCc1ccccc1)C(=O)N[C@@H](CC(=O)O)C(=O)CF) [DEVD.fmk]
- induction of differentiation as measured by Oct4 staining (human ES cells [1]; human ES cells, p<0.01): dose dependent induction of differentiation
- Oct4 staining by immunocytochemistry (human ES cells [1]; spindle-shaped cells after DEVD.fmk, data not shown): failed to stain for Oct4
- PARP-1 activity [2]: upregulated
- outgrowth: rind and core structures of extraembryonic endoderm overlying epiblast (mouse embryos): always failed to produce prominent rind and core structures
- decrease in proliferation of human ES cells (human ES cells [3]; after 3 days): no longer observed
- proliferation of human ES cells (human ES cells [3]; first 48 hours after application): small decrease in proliferation
- p85 PARP-1 fragment in Western blot analysis [4]: disappearance
- caspase-3-like activity [5]: reduced this activity
- time to differentiate into morphologically uniform mesendoderm cells (human ES cells [6]; human ES cells incubated with caspase inhibitor): 2-3 days
- cell morphology (human ES cells [6]; human ES cells treated with DEVD.fmk): differentiated to a spindle shape cell with a much smaller nuclear-cytoplasmic ratio
- rate of programmed cell death as measured by Annexin-V EGFP staining (human ES cells [7]): dose-dependent reduction
- development to expanded blastocysts (mouse morulas; 200 μM DEVD.fmk): completely inhibiting development to expanded blastocysts
- development of blastocysts (mouse morulas; added to E2.0, E2.5, E3.0 mouse morulas, dose-dependent): inhibited the development of blastocysts
- up-regulation of DKK4 (human ES cells [8]; microarray, FIG. 7): over 170 fold
- upregulation of BMP4 (human ES cells [8]; [9]): 45 X
- upregulation of DKK4 (human ES cells [8]; [9]): 137 X
- upregulation of GATA-3 (human ES cells [8]; [9]): 9 X
- upregulation of WNT3 (human ES cells [8]; [9]): 3 X
- upregulation of WNT5A (human ES cells [8]; [9]): 5 X
- upregulation of brachyury variant A (human ES cells [8]; [9]): 73 X
